Experimental data as given in patent publication US20260234116A1, “CYTOTOXIC EPOXYKETONE COMPOUNDS, PRECURSORS, COMPOSITIONS, AND METHODS OF USE” (Memorial Sloan-Kettering Cancer Center, priority 2023, published 2026).

Assays:
[1] = target: EpnF (Streptomyces hygroscopicus, UniProt V5RMU9); test: Semiquantitative epoxide capture assay (EpnF-catalyzed epoxyketone formation); type: biochemical; conditions: 1 μM EpnF, 250 μM β-ketoacid substrate, 1 h; positive control 11n (FIG. 1)
Protocol: Recombinant EpnF was diluted to 1 μM in 180 μL EpnF Buffer in an 1.5 mL Eppendorf tube. The β-ketoacid 11 was added at various concentrations to a total reaction volume of 200 μL. The mixture was incubated in a heated shaker at 37° C. and 225 rpm for 1 h. The reaction mixture (30 μL×3 technical replicates) was transferred to a white, opaque 96-well plate (PerkinElmer, OptiPlate-96). Each plate also contained 30 μL×3 technical replicates of EpnF Buffer as a negative control. To each well, 15 μL of 125 mM nicotinamide in EpnF Buffer was added and mixed by pipetting. The plate was sealed with an adhesive foil cover (VWR Adhesive Foil for Microplates) and heated in an oven at 80° C. for 1 h. The plate was cooled to rt and 25 μL of 15% (v/v) acetophenone in EtOH and 25 μL of 1 M potassium hydroxide in EtOH were added to each well, then mixed by pipetting. The plate was cooled on ice for 10 min, then 125 μL formic acid was added to each well. The plate was resealed and heated in an oven at 100° C. for 5 min. The plate was cooled on ice for 5-10 min, then analyzed (λex 370 nm, λem 430 nm) on a fluorescence plate reader (Molecular Devices Spectramax M3).
We adapted a reported epoxide capture assay [Nelis, H. J. C. F.; Sinsheimer, J. E. (1981) A sensitive fluorimetric procedure for the determination of aliphatic epoxides under physiological conditions. Anal. Biochem. 115, 151-157.] to 96-well plate format to detect formation of the epoxyketone products semiquantitatively. Each β-ketoacid substrate 11 was incubated with recombinant, purified EpnF (1 h), then reacted with nicotinamide and acetophenone (1 h) to form a fluorescent 1,6-naphthyridinone 24. The fluorescent signals were normalized to that resulting from the known substrate β-ketoacid 11n as a positive control [Zabala, D.; Cartwright, J. W.; Roberts, D. M.; Law, B. J. C.; Song, L.; Samborskyy, M.; Leadlay, P. F.; Micklefield, J.; Challis, G. L. (2016) A flavin-dependent decarboxylase-dehydrogenase-monooxygenase assembles the warhead of α,β-epoxyketone proteasome inhibitors. J. Am. Chem. Soc. 138, 4342-4345.].

[2] = Stability of β-ketoacid substrates (decarboxylation, 1H-NMR or SPE-MS/MS); type: physicochemical
Protocol: To assess rates of decarboxylation under conditions relevant to storage, biochemical assays, and cellular assays, we investigated the stability of eponemycin-based β-ketoacids 11a and 11c under a variety of conditions as shown in below Table C.
For samples stored neat, β-ketoacid 11 (lyophilized powder) was aliquoted into 1.5-2 mg samples in glass vials and placed under Ar. Samples were stored on the bench top (20-25° C.), in at 4° C. refrigerator or in a −20° C. freezer. At each time point, an entire aliquot was dissolved in CD3OD (600 μL) analyzed by ^1H-NMR for decarboxylation to the corresponding isopropyl ketone byproduct 22. The degree of decarboxylation was determined by comparing integrations of two singlet peaks at 1.40 and 1.33 ppm, arising from the α,α-dimethyl groups in the β-ketoacid 11, to two doublet peaks at 1.09 and 1.06 ppm, arising from the isopropyl methyl groups in the decarboxylation product 22. A septuplet corresponding to the methine proton of the isopropyl group was also observed at 2.91 ppm.
For samples stored in PBS, aliquots of β-ketoacid 11 were dissolved in deuterated PBS (600 μL) and incubated in a 37° C. shaking incubator. At each time point, one aliquot was removed and analyzed by ^1H-NMR as above. NMR changes observed in deuterated PBS were similar to those observed in CD3OD above.
For samples stored in RPMI, β-ketoacid 11 (lyophilized powder) was dissolved in EtOH to a working stock concentration of 20 mM. The sample was diluted in RPMI to 100 μM (1000 μL) and incubated at 37° C. At each time point, an aliquot (50 μL) was removed from the master sample, transferred to a 96-well plate, quenched with 4 vol MeOH, centrifuged at 4,000 g to precipitate debris, and immediately analyzed by SPE-MS/MS to quantitate β-ketoacid 11 remaining.

Sequence of EpnF (V5RMU9 entry or part of it): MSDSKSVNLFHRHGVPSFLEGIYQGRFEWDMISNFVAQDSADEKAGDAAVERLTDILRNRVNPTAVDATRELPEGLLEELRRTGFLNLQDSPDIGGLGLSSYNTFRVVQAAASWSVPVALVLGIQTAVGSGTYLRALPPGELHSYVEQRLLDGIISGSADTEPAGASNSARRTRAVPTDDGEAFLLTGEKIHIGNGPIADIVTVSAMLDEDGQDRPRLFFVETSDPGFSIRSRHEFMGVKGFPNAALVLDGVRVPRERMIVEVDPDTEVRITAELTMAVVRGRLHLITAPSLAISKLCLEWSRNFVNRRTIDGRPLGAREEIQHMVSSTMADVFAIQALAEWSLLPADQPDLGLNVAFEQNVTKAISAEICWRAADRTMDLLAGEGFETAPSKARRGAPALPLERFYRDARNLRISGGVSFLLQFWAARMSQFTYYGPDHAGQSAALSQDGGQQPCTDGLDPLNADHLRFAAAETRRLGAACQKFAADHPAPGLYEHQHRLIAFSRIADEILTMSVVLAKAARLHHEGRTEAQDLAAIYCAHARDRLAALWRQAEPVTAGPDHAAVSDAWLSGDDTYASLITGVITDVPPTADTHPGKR

half-life at 100 μM ([2]; RPMI medium, RPMI, 37° C.): 2.5 h
half-life ([2]; deuterated PBS, PBS, 37° C.): 4.5 h
half-life ([2]; neat lyophilized powder, neat, 4° C.): > 336 h
half-life ([2]; neat lyophilized powder, neat, 25° C.): 120 h
half-life ([2]; neat lyophilized powder, neat, −20° C.): > 336 h
% remaining at last time point ([2]; neat, 4° C.): d (80%)
% remaining at last time point ([2]; neat, −20° C.): d (95%)
Structure (SMILES): CC(C)CCCCC(=O)N[C@@H](CO)C(=O)N[C@@H](CC(C)C)C(=O)C(C)(C)C(=O)O [Compound 11a, (4S)-4-[(2S)-3-Hydroxy-2-(6-methylheptanamido)propanamido]-2,2,6-trimethyl-3-oxoheptanoic acid]
EpnF-catalyzed formation of epoxyketone (epoxide capture) [1]: levels comparable to that of the positive control
stability / rate of decarboxylation (in words) ([2]; neat at low temperatures, buffer or media at 37° C.): fairly stable when stored neat at low temperatures
